Earlier results on two compounds are cited in publication PMC3449305 (Bioorganic & medicinal chemistry, 2011).

The conditions of data set [1]: rats.
In data set [2] the test system is CNS. To be noted: rodents.

In the case of `CC(NC(=O)C(CC(=O)N1CCC(N2CCCCC2)CC1)N1C(=O)C(N2C(=O)OCC2c2ccccc2)C1C=Cc1ccccc1)c1ccccc1` (centres unmarked) [SRX246], in data set [1], the blood-brain barrier penetration result is listed as “crosses the blood–brain barrier”.
On to `C[C@@H](NC(=O)[C@@H](CC(=O)N1CCC(N2CCCCC2)CC1)N1C(=O)[C@@H](N2C(=O)OC[C@@H]2c2ccccc2)[C@H]1/C=C/c1cccc(I)c1)c1ccccc1` [Compound 11a, (R)-4-([1,4′-Bipiperidin]-1′-yl)-2-((2R,3S)-2-((E)-3-iodostyryl)-4-oxo-3-((S)-2-oxo-4-phenyloxazolidin-3-yl)azetidin-1-yl)-4-oxo-N-((R)-1-phenylethyl)butanamide], for which, in data set [2], the “CNS effect in BOLD imaging” value is “CNS modulatory effect”.
